Read-outs that look alike come from different tables or passages of the source.
What was measured:
[1] = molecular target: T1, Dnmt1 (Homo sapiens, UniProt P26358); assay: Glal restriction endonuclease-coupled DNA methylation assay (Test A); assay type: biochemical
Text: (§1) A Glal restriction endonuclease-coupled DNA methylation assay was used to assess Dnmt1 activity (Syeda et al, J Biol Chem 2011, 286, 15344-15351). Upon methylation of the DNA substrate by Dnmt1, the DNA substrate is cleaved by Glal, freeing a 5′ fluorophore from the 3′ quencher, and generating a fluorescence signal. Inhibition of Dnmt1 results in a loss of fluorescence generation.
as §1, with “assay” for “assay was used”
First, laccaic acid was screened against the methyl-specific restriction endonuclease Glal (SibEnzyme, West Roxbury, Mass.) to ensure that the compound was not inhibiting Glal rather than Dnmt1. […] Increasing concentrations of laccaic acid A were used in the endonuclease-coupled DNA methylation assay to determine an IC50 value for the compound. […] Lastly, differential scanning fluorimetry was used to determine if laccaic acid A was a direct binder of Dnmt1 in the absence of the DNA or S-adenosyl methionine substrate.

[2] = system: methyl-specific restriction endonuclease Glal; assay: Counter-screen against methyl-specific restriction endonuclease Glal; assay type: biochemical; details: under all conditions tested
Protocol: (§2) Laccaic acid A was further validated as a Dnmt1 inhibitor in three assays. First, laccaic acid was screened against the methyl-specific restriction endonuclease Glal (SibEnzyme, West Roxbury, Mass.) to ensure that the compound was not inhibiting Glal rather than Dnmt1. Under all conditions tested, Glal had full activity in the presence of laccaic acid A. Next, the concentration dependence of laccaic acid A inhibition on Dnmt1 activity was assessed. Increasing concentrations of laccaic acid A were used in the endonuclease-coupled DNA methylation assay to determine an IC50 value for the compound. Laccaic acid A was determined to have an IC50 value of 400 nM. […] Lastly, differential scanning fluorimetry was used to determine if laccaic acid A was a direct binder of Dnmt1 in the absence of the DNA or S-adenosyl methionine substrate.

[3] = molecular target: T1, Dnmt1; assay: Differential scanning fluorimetry, direct binding to Dnmt1; details: increase from 44° C.; absence of the DNA or S-adenosyl methionine substrate
Protocol: as §2

[4] = Table 1, Glal restriction endonuclease-coupled DNA methylation assay, read-out: IC50 (μM), Dnmt1 inhibition activity

T1 sequence (P26358 whole entry): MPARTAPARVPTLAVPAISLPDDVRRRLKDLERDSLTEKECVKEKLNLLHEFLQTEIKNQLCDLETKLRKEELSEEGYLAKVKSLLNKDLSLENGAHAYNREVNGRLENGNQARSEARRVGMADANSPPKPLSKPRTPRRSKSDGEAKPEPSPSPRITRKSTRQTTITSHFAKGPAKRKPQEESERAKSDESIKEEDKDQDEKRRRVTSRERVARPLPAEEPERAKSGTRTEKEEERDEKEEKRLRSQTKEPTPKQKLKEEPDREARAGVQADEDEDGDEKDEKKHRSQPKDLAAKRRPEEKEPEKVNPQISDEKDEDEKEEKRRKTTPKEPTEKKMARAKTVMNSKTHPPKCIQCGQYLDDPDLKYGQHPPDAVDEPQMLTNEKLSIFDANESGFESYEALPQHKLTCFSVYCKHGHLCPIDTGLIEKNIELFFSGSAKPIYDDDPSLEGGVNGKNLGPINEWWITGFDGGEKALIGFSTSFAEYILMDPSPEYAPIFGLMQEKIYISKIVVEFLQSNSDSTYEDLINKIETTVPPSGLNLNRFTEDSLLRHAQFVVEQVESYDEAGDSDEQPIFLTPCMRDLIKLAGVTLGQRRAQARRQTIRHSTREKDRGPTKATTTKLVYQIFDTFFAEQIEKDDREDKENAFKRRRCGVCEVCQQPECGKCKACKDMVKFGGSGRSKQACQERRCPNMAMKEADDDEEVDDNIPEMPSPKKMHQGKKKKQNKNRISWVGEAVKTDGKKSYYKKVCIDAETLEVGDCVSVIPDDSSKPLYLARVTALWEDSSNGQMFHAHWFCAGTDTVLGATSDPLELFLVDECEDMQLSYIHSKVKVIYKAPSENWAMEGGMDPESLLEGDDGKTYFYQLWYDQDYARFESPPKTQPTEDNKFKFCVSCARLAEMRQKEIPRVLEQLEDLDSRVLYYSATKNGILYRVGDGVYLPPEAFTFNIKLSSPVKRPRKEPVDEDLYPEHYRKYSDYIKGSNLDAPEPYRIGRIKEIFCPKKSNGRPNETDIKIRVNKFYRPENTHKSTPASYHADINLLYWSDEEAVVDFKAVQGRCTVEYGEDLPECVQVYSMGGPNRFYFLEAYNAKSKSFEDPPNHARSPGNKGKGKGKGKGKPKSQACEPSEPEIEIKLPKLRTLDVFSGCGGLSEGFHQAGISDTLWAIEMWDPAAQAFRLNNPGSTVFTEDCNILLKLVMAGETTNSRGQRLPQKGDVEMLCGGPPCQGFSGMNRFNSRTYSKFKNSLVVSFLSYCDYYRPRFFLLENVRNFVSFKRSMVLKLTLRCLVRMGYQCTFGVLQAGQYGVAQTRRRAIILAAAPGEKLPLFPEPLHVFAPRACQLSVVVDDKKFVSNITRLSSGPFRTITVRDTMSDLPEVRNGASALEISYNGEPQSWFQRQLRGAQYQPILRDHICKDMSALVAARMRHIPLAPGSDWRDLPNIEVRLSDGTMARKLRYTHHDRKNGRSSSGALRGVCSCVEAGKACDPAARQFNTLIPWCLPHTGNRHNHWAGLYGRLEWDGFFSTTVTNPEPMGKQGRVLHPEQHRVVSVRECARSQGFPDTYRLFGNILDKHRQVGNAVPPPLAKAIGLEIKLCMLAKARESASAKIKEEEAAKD

Row | SMILES | IC50 [1, 4] | other results
1 | CC(=O)NCCc1ccc(O)c(-c2c(O)c(O)c3c(c2O)C(=O)c2c(cc(O)c(C(=O)O)c2C(=O)O)C3=O)c1 [II, Laccaic Acid A] | 2.1 µM | IC50 ([1]; increasing concentrations in the endonuclease-coupled DNA methylation assay, read-out: IC50 value, inhibition of Dnmt1 activity): 0.4 µM; fold more potent at inhibition of Dnmt1 than SG14027 ([1]; ratio of IC50 values, versus SG14027): 5 fold; outcome of high throughput screen for inhibitors of Dnmt1 activity ([1]; screen of the Spectrum collection (Microsource)): hit; Glal activity in the presence of compound [2]: full activity; observed melting temperature of Dnmt1 after addition of compound [3]: 45.7 °C
2 | Oc1cc(Cl)ccc1Oc1ccc(Cl)cc1Cl [III, Triclosan, reference compound] | 3.8 µM | –
3 | O=C1c2ccccc2C(=O)c2c1ccc(O)c2O [VI, Alizarin] | 11 µM | –
4 | O=c1c(O)c(-c2ccc(O)c(O)c2)oc2c(O)c(O)cc(O)c12 [VII, Gossypetin] | 2.9 µM | –
5 | O=C1C=CC(=O)c2c(O)cccc21 [VIII, Juglone] | 1.7 µM | –

More lines, main results first:

Row | IC50 [1, 4] | SMILES | other results
6 | 0.45 µM | O=C(O)c1cc(O)c2c(c1)[C@@H]([C@H]1c3cc(C(=O)O)cc(O)c3C(=O)c3c(O[C@H]4O[C@H](CO)[C@@H](O)[C@H](O)[C@H]4O)cccc31)c1cccc(O[C@H]3O[C@H](CO)[C@@H](O)[C@H](O)[C@H]3O)c1C2=O [IV, Sennoside A, reference compound] | –
7 | 0.33 µM | O=C(O)C(S)C(S)C(=O)O (centres unmarked) [IX, 2,3-Dimercaptosuccinic Acid, reference compound] | –
8 | 0.45 µM | O=C(O)c1cc(O)c2c(c1)[C@@H]([C@@H]1c3cc(C(=O)O)cc(O)c3C(=O)c3c(O[C@H]4O[C@H](CO)[C@@H](O)[C@H](O)[C@H]4O)cccc31)c1cccc(O[C@H]3O[C@H](CO)[C@@H](O)[C@H](O)[C@H]3O)c1C2=O [V, Sennoside B, reference compound] | –
9 | 6.1 µM | CSc1nc2cc(Cl)c(Oc3cccc(Cl)c3Cl)cc2[nH]1 [XI, Triclabendazole, reference compound] | –

Reference: US20130225517A1, “Therapeutic Compounds” (University of Iowa Research Foundation, priority 2012, published 2013)
